Experimental data from US4891319A, “Protection of proteins and the like” (Quadrant Bioresources Limited, priority 1985, dated 1990).

Tests used:
[1] = system: Rh D antigen; assay: titrated haemagglutination assay of dried human IgM anti-Rh D antibody; format: cell-based; conditions: for % activity retained in HA titre: dried antibody, sugar at 5% final concentration
Source text: (§1) They can then be stored at room temperature indefinitely.
3. Trehalose preserves 100% of the antibody activity. A test of five sugars all used at 5% final concentration in a titrated haemagglutination assay gave the following results.
(§2) An additional titration was done to establish whether there is an optimum concentration of trehalose for preservation. The antibodies tested were mouse monoclonal IgM anti A antibody, a mouse monoclonal IgM anti B antibody and a human monoclonal IgM anti Rh antibody used above. They were diluted to an appropriate starting concentration as follows: mouse anti A 1:10, mouse anti B 1:10, human anti Rh (to a final concentration of 20μg/ml). These were titrated 1:3 across a 96 well microtitre plate in Dulbecco's phosphate buffered saline (PBS) in a final volume of 50μl. To each horizontal 8 well row was added 50μl of trehalose at concentrations ranging from 10% w/v to 0.1% w/v. The wells were then dried at 37° overnight. Next day the wells were rehydrated with 100μl distilled water containing buffer sufficient to restore isotonicity. Then 50μl aliquots were transferred to a v-bottom microtitre plate and 25μl of 1% washed human red cells carrying the appropriate blood group antigens added and mixed. Haemagglutination titres were read after 2-3 hours at room temperature. […] With the anti Aantibody any trehalose concentration above 1% preserved maximal activity and with the anti B antibody any concentration above 0.5% preserved maximum activity.

[2] = system: R-phycoerythrin; assay: Fluorescence of R-phycoerythrin after drying with or without trehalose; format: physicochemical, marine Rhodophyte; conditions: trehalose-containing samples, stored in the dark for 10 months
Method: The phycobiliprotein R-phycoerythrin was purified from a marine Rhodophyte. This brilliantly fluorescent red protein was blotted onto nitrocellulose membrane or glass fibre filter paper in phosphate buffer with and without 10% w/v added trehalose and dried at room temperature.
R-phycoerythrin at 5 mg/ml was dried at 37° on glass fibre filter paper (Whatman GF/C), cellulose filter paper (Whatman No. 1) or on nitrocellulose membrane (Schleicher & Schull 0.45μ pore size) in the presence of 5% trehalose in solution and in its absence. In the absence of trehalose the spots of dried R-phycoerythrin changed colour to a purplish red and lost >90% of their fluorescence intensity.

[3] = system: A blood group substance; assay: titrated haemagglutination assay of dried mouse IgM anti A antibody; format: cell-based, human; conditions: dried at 37° overnight
Method: as §1, §2

[4] = system: B blood group substance; assay: titrated haemagglutination assay of dried mouse IgM anti B antibody; format: cell-based, human; conditions: dried at 37° overnight
Method: as §1, §2

[5] = system: rat IgG immunoglobulin; assay: indirect agglutination titre of dried or fresh sheep antiserum K237; format: cell-based
Method: A sheep antiserum to rat IgG immunoglobulin (K237) was titrated in a 96 well flat bottom microtitre plate as 1:3 steps (25μl serum in 50μl PBS). 50μl of 5% w/v trehalose in D.W was then added and the plate dried at 37° in a warm room for 48 hr.
The wells were reconstituted with 100μl distilled water. 50μl of the contents of each well were transferred to v bottom microtitre plates, DA rate erythrocytes were washed ×3 in saline and sensitized by incubation for 2 hr at RT with tissue culture supernatant of the monoclonal antibody R3/13 HLK which is specific for the A^a class 1 transplantation antigen on DA erythrocytes. The red cells were then washed x3 in saline and resuspended at 1% v/v in PBS +1% BSA. The sensitized rat erythrocytes were added. At the same time fresh K237 serum was titrated as above as a positive non-dried control.
The capacity for the dried and fresh serum to cause indirect agglutination of the red cells sensitized by the rat antibody R3/13 was then read.

[6] = system: rat lymphocytes; assay: Fluorescence microscopy of labelled rat lymphocytes; format: cell-based; conditions: dried with 10% added trehalose
Source text: Fluorescence microscopy using R-phycoerythrin as the fluorochrome was previously very inefficient because of fluorescence fading in aqueous mountants. This can be prevented by drying of the preparation and mounting in a non-polar mountant such as Gurr's Fluoromount, but drying destroys more than 90% of the fluorescence of R-phycoerythrin. This is prevented by drying in the presence of trehalose in the final buffer.
The anti CD4 monoclonal antibody W3/25 was coupled with biotin-linker-arm N-hydroxysuccinimide ester and used in saturating doses to label the T helper subset of rat lymphocytes. These labelled cells were then detected with a second stage staining using a streptavidin-R-phycoerythrin conjugate. After a final wash the cells were divided into four aliquots and one was examined in the FACS to illustrate correct labelling with these reagents. […] Smears were made and dried and then mounted in Fluoromount. The fourth aliquot was mounted wet in PBS. All three preparations were examined in a Zeiss photomicroscope II with Ploem optics.

[7] = system: alkaline phosphate from calf intestine; assay: Preservation of dried alkaline phosphatase activity; format: biochemical; conditions: dried at 37° with 5% trehalose, 4 weeks at room temperature
Method: The mammalian enzyme alkaline phosphate from calf intestine was serially diluted in phosphate buffered saline (PBS) and added to the wells of a NUNC Immunoplate. After overnight incubation to bind the enzyme to the plastic surface, the wells were washed, shaken free of liquid, and dried at 37° in the presence or absence of 5% trehalose in distilled water. […] At the end of this time the wells were rehydrated with distilled water and substrate added. A positive control consisted of fresh dilutions of the enzyme. The activity of one enzyme was measured by the standard test of […] p-nitrophenylphosphate and monitoring the optical density at 405 nm.

[8] = system: guinea pig serum complement; assay: CH50 assay, preservation of dried serum complement; format: cell-based
Method: Guinea pig serum was prepared fresh and frozen in aliquots at -196° until use. As target cells, washed sheep erythrocytes (SRBC) which had been stored in Alsever's solution for up to 2 weeks were incubated with the bovine monoclonal anti-Forrsman antibody 94A1-AZA for 1 hr at 4° and then washed in complement fixation diluent (CFD). Freshly thawed guinea pig serum was diluted in CFD where required in flat bottom microtitre plate (NUNC, Denmark) and trehalose added at various concentrations. […] For the CH50 assay (P.J. Lachmann and M.J. Hobart in "Handbook of Experimental Immunology" ed. D.M. Weir, Blackwell 1978), dried or fresh complement was titrated out in a U bottom microtitre plate and sensitised SRBC added to a final concentration of 2%. […] The endpoint was measured as the cup in which 50% of the erythrocytes remained as a button.

[9] = system: fixed red cells; assay: Drying of antigen- or antibody-coupled fixed red blood cells; format: cell-based; conditions: dried in the presence of trehalose
Source text: Upon rehydration the coupled, fixed red cells can be resuspended to form a perfect single cell suspension which then behaves as a fresh red cell suspension does in haemagglutination assays.

[10] = system: cellular organelles; conditions: loss of bound water; cited from earlier work
[11] = system: rat IgG; assay: indirect haemagglutination titre of K237 antiserum dried on matrices and eluted; format: cell-based; conditions: dried on Whatman No. 1 cellulose paper
Method: A number of different matrices were examined for use as a trehalose support. They include pure cellulose paper (Whatman No. 1 filter paper), glass fibre paper (What man GF/A and GF/C papers), polyurethane sponge foam and porous polyethylene sheet. These matrices were soaked in trehalose dissolved in distilled water at various concentrations from 10% down to 1% and dried at 37°. […] Various sera were applied to the paper and dried at 37°. After various periods of storage at 37+, samples were eluted with distilled water or normal saline; usually used in a volume 2-4 times that of the original serum sample so that their potency could be directly compared with fresh non-dried samples of the same sera.
K237, a sheep antiserum against rat IgG, was dried on to 10% trehalose-impregnated cellulose paper, glass fibre paper and porous polyethylene sheet and stored for 7 days at 37° C.
The paper or sheet was eluted with 4 volumes of normal saline and titrated in an indirect haemagllutination assay for its ability to agglutinate DA strain rat erythrocytes coated with a monoclonal antibody (JN2/85) against the class 1 antigens expressed on the erythrocyte membranes.
The same antiserum was then tested by drying on the Whatman No. 1 cellulose paper in the presence of various sugars and in the absence of sugar.

[12] = molar basis; cited from earlier work
[13] = system: haemoglobin; assay: Spectral properties and gas exchange of dried haemoglobin; format: physicochemical; conditions: oxy and carboxy forms dried in the presence of trehalose
Source text: Many macromolecular functions require mobility of the macromolecule e.g. antibodies have to physically move into close proximity to their antigen in order for binding to occur through electrostatic and hydrophobic interactions. The same is true of enzymes binding their substrates. Minor molecular motion is also required for other macromolecular functions. Thus haemoglobin undergoes rotation and movement of certain amino acids during the reversible binding of oxygen and carbon dioxide. None of this molecular mobility is observed in the dry state.
In contrast, the fluorescence of R-phycoerythrin involves "movement" only on the sub atomic level. Absorption of light energy at low wavelengths e.g. (488 nm) causes electrons in the chromophores to shift to higher energy orbits. Fluorescence at longer wavelengths is due to the emission of photons when these electrons jump back to lower energy orbits. […] This method is therefore of great interest in the application of biological (and synthetic) macromolecules in new electronic applications. Examples include proton and electron pumping (such as is mediated, on exposure to light, by bacteriorhodopsin and rhodopsin). […]

[14] = system: horseradish peroxidase; assay: Preservation of dried horseradish peroxidase activity; format: biochemical; conditions: dried with or without trehalose; compared with alkaline phosphatase

## OC[C@H]1O[C@H](O[C@H]2[C@H](O)[C@@H](O)C(O)O[C@@H]2CO)[C@H](O)[C@@H](O)[C@@H]1O (mixture of isomers) [maltose, reference compound]
[1]
  % activity retained in HA titre: 11.1%

## OC[C@H]1O[C@H](O[C@H]2O[C@H](CO)[C@@H](O)[C@H](O)[C@H]2O)[C@H](O)[C@@H](O)[C@@H]1O [Trehalose, α-D-glucopyranosyl-α-D-glucopyranoside]
[2]
  fluorescence after storage: without loss of fluorescence
[1]
  % activity retained in HA titre: 100%
[1]; human antibody, 2.5% final trehalose, dried at 37° overnight
  maximum preservation of activity: 100%
[1]; human antibody, 5% final trehalose concentration
  change in titre: slight decrease in titre
[1]; human antibody, at the drying stage
  final concentration of trehalose at maximum preservation: 2.5%
[3]
  trehalose concentration preserving maximal activity: above 1%
[4]
  trehalose concentration preserving maximum activity: above 0.5%
[5]; Dried + Trehalose (5% w/v, 37°, 48 hr)
  Titre (cups): 7
[5]; dried with trehalose
  antibody activity of whole serum preserved: 100%
[6]
  brilliantly fluorescent cells: 75%
  fading of fluorescent cells: did not fade
[6]; several weeks
  fading of labelled cells on repeated examination: no detectable fading
[7]
  retention of enzyme activity: Full retention of activity
[8]; 25% serum, trehalose 0.15M and above
  complement activity preserved: 100%
[8]; 50% normal serum, trehalose 0.22M and above
  complement activity preserved: 100%
[8]; dried with trehalose and reconstituted
  prevention of loss of complement activity: completely prevented
[8]; up to 0.5M, any concentration of serum
  inhibition by high concentrations of trehalose: not inhibitory
[9]
  function of antibody or antigen coupled to fixed red cell membrane: completely preserves the function of the antibody or antigen
  preservation and resuspension of fixed red cells: completely preserves the fixed red cells themselves
[10]
  protection of cellular organelles compared with other carbohydrates: significantly superior to other carbohydrates

## O=C[C@H](O)[C@@H](O)[C@H](O)[C@H](O)CO [glucose, reference compound]
[1]
  % activity retained in HA titre: 1.2%

## OC[C@H]1O[C@H](OC[C@H]2O[C@H](O[C@]3(CO)O[C@H](CO)[C@@H](O)[C@@H]3O)[C@H](O)[C@@H](O)[C@@H]2O)[C@H](O)[C@@H](O)[C@H]1O [raffinose, reference compound]
[1]
  % activity retained in HA titre: 3.7%
[11]
  difference from the untreated paper: No significant difference

## OC[C@H]1O[C@@](CO)(O[C@H]2O[C@H](CO)[C@@H](O)[C@H](O)[C@H]2O)[C@@H](O)[C@@H]1O [sucrose, reference compound]
[1]
  % activity retained in HA titre: 11.1%
[11]
  difference from the untreated paper: No significant difference

## R Phycoerythrin
[12]
  brightness relative to fluorescein: 20 times

## haemoglobin
[13]
  spectral properties after drying: retain their spectral properties

## horseradish peroxidase
[14]
  retention of enzyme activity: Identical results
